Reference: PubChem BioAssay (NCI)
Several values for one entry are separate records, joined by “and”; a condition that tells them apart may be missing. Equal values may be shown once.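 Growth conditions: 96-well plates. Treatment: test compound, 48 hours, 5 concentrations. Analysis: linear interpolation between bracketing concentrations; unreached endpoints set to highest concentration. GI50: concentration for 50% inhibition of growth. At the TGI there is no net growth.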

Legend:
Test in all cases: NCI tumour cell line growth inhibition, 48 h
786-0 renal = tested on: 786-0 renal
A549 NSCLC = tested on: A549 NSCLC
ACHN renal = tested on: ACHN renal
BT-549 breast = tested on: BT-549 breast
CAKI-1 renal = tested on: CAKI-1 renal
CCRF-CEM leukemia = tested on: CCRF-CEM leukemia
COLO 205 colon = tested on: COLO 205 colon
DMS 114 small cell lung = tested on: DMS 114 small cell lung
DU-145 prostate = tested on: DU-145 prostate
HCC-2998 colon = tested on: HCC-2998 colon
HCT-116 colon = tested on: HCT-116 colon
HCT-15 colon = tested on: HCT-15 colon
HL-60(TB) leukemia = tested on: HL-60(TB) leukemia
HOP-92 NSCLC = tested on: HOP-92 NSCLC
HS 578T breast = tested on: HS 578T breast
HT29 colon = tested on: HT29 colon
IGROV1 ovarian = tested on: IGROV1 ovarian
K-562 leukemia = tested on: K-562 leukemia
KM12 colon = tested on: KM12 colon
KM20L2 colon = tested on: KM20L2 colon
LOX IMVI melanoma = tested on: LOX IMVI melanoma
M19-MEL melanoma = tested on: M19-MEL melanoma
MALME-3M melanoma = tested on: MALME-3M melanoma
MCF7 breast = tested on: MCF7 breast
MDA-MB-231 breast = tested on: MDA-MB-231 breast
MDA-MB-435 = tested on: MDA-MB-435
MOLT-4 leukemia = tested on: MOLT-4 leukemia
NCI-H23 lung = tested on: NCI-H23 lung
NCI-H460 lung = tested on: NCI-H460 lung
NCI-H522 lung = tested on: NCI-H522 lung
NCI/ADR-RES ovarian = tested on: NCI/ADR-RES ovarian
OVCAR-3 ovarian = tested on: OVCAR-3 ovarian
OVCAR-4 ovarian = tested on: OVCAR-4 ovarian
OVCAR-5 ovarian = tested on: OVCAR-5 ovarian
OVCAR-8 ovarian = tested on: OVCAR-8 ovarian
P388 leukemia = tested on: P388 leukemia
P388/ADR leukemia = tested on: P388/ADR leukemia
PC-3 prostate = tested on: PC-3 prostate
RPMI-8226 leukemia = tested on: RPMI-8226 leukemia
RXF 393 renal = tested on: RXF 393 renal
RXF-631 renal = tested on: RXF-631 renal
SF-539 CNS = tested on: SF-539 CNS
SK-MEL-2 melanoma = tested on: SK-MEL-2 melanoma
SK-MEL-28 melanoma = tested on: SK-MEL-28 melanoma
SK-MEL-5 melanoma = tested on: SK-MEL-5 melanoma
SK-OV-3 ovarian = tested on: SK-OV-3 ovarian
SN12C renal = tested on: SN12C renal
SNB-19 CNS = tested on: SNB-19 CNS
SNB-75 CNS = tested on: SNB-75 CNS
SW-620 colon = tested on: SW-620 colon
T-47D breast = tested on: T-47D breast
TK-10 renal = tested on: TK-10 renal
U251 CNS = tested on: U251 CNS
UACC-257 melanoma = tested on: UACC-257 melanoma
UACC-62 melanoma = tested on: UACC-62 melanoma

**Q.** Which TGI (786-0 renal) does the source give for `CC[C@@H](C)[C@H]([C@H](CC(=O)N1CCC[C@@H]1[C@@H](OC)[C@H](C)C(=O)N[C@H](Cc1ccccc1)c1nccs1)OC)N(C)C(=O)[C@H](NC(=O)[C@@H](C(C)C)N(C)C)C(C)C` here?
**A.** 44100 nM

**Q.** What about the GI50 (A549 NSCLC) of the same compound?
**A.** 0.425 nM

**Q.** What about the TGI (ACHN renal) of the same compound?
**A.** > 100000 nM

**Q.** What about the GI50 (BT-549 breast) of the same compound?
**A.** 0.0848 nM

**Q.** And the TGI (BT-549 breast)?
**A.** > 100000 nM

**Q.** And the GI50 (CAKI-1 renal)?
**A.** 0.245 nM and 0.425 nM

**Q.** And the GI50 (CCRF-CEM leukemia)?
**A.** 0.257 nM and 0.425 nM

**Q.** What about the TGI (COLO 205 colon) of the same compound?
**A.** 0.302 nM

**Q.** And the TGI (DMS 114 small cell lung)?
**A.** 1.23 nM

**Q.** And the GI50 (DU-145 prostate)?
**A.** 0.0148 nM

**Q.** What about the TGI (DU-145 prostate) of the same compound?
**A.** 0.106 nM

**Q.** What about the GI50 (HCC-2998 colon) of the same compound?
**A.** 0.425 nM

**Q.** What about the TGI (HCC-2998 colon) of the same compound?
**A.** 1.76 nM and 2.34 nM

**Q.** What about the TGI (HCT-116 colon) of the same compound?
**A.** 4.67 nM

**Q.** What about the TGI (HCT-15 colon) of the same compound?
**A.** 5.4 nM

**Q.** What about the GI50 (HL-60(TB) leukemia) of the same compound?
**A.** 0.425 nM

**Q.** And the GI50 (HOP-92 NSCLC)?
**A.** 0.425 nM

**Q.** And the GI50 (HS 578T breast)?
**A.** 0.0695 nM

**Q.** What about the TGI (HS 578T breast) of the same compound?
**A.** 4060 nM

**Q.** And the TGI (HT29 colon)?
**A.** 0.849 nM

**Q.** What about the GI50 (IGROV1 ovarian) of the same compound?
**A.** 0.425 nM

**Q.** And the GI50 (K-562 leukemia)?
**A.** 0.425 nM

**Q.** What about the TGI (K-562 leukemia) of the same compound?
**A.** 2860 nM and > 4640 nM

**Q.** What about the GI50 (KM12 colon) of the same compound?
**A.** 0.425 nM

**Q.** And the TGI (KM20L2 colon)?
**A.** 0.234 nM

**Q.** What about the GI50 (LOX IMVI melanoma) of the same compound?
**A.** 0.425 nM

**Q.** And the GI50 (M19-MEL melanoma)?
**A.** 0.425 nM

**Q.** What about the GI50 (MALME-3M melanoma) of the same compound?
**A.** 0.425 nM

**Q.** What about the TGI (MCF7 breast) of the same compound?
**A.** > 100000 nM

**Q.** What about the GI50 (MDA-MB-231 breast) of the same compound?
**A.** 0.147 nM

**Q.** And the TGI (MDA-MB-231 breast)?
**A.** 0.867 nM and < 48 nM

**Q.** What about the TGI (MDA-MB-435) of the same compound?
**A.** 0.00294 nM

**Q.** And the TGI (MOLT-4 leukemia)?
**A.** > 28400 nM

**Q.** And the TGI (NCI-H23 lung)?
**A.** 5.54 nM and < 215 nM

**Q.** And the TGI (NCI-H460 lung)?
**A.** 1.95 nM

**Q.** What about the GI50 (NCI-H522 lung) of the same compound?
**A.** 0.0657 nM

**Q.** And the TGI (NCI-H522 lung)?
**A.** 0.351 nM

**Q.** What about the GI50 (NCI/ADR-RES ovarian) of the same compound?
**A.** 0.317 nM

**Q.** And the TGI (NCI/ADR-RES ovarian)?
**A.** < 215 nM

**Q.** What about the TGI (OVCAR-3 ovarian) of the same compound?
**A.** 0.158 nM and < 87 nM

**Q.** And the GI50 (OVCAR-4 ovarian)?
**A.** 1200 nM and 588 nM

**Q.** And the GI50 (OVCAR-5 ovarian)?
**A.** < 15.2 nM

**Q.** And the GI50 (OVCAR-8 ovarian)?
**A.** 0.425 nM

**Q.** And the TGI (P388 leukemia)?
**A.** 581 nM

**Q.** What about the TGI (P388/ADR leukemia) of the same compound?
**A.** 0.573 nM

**Q.** What about the GI50 (PC-3 prostate) of the same compound?
**A.** 0.00777 nM

**Q.** What about the TGI (PC-3 prostate) of the same compound?
**A.** > 65800 nM

**Q.** And the GI50 (RPMI-8226 leukemia)?
**A.** 0.425 nM

**Q.** And the GI50 (RXF 393 renal)?
**A.** 17.9 nM

**Q.** And the TGI (RXF-631 renal)?
**A.** 7.31 nM

**Q.** What about the TGI (SF-539 CNS) of the same compound?
**A.** 1.61 nM

**Q.** What about the GI50 (SK-MEL-2 melanoma) of the same compound?
**A.** < 22.9 nM

**Q.** And the GI50 (SK-MEL-28 melanoma)?
**A.** 1260 nM

**Q.** And the TGI (SK-MEL-28 melanoma)?
**A.** > 100000 nM

**Q.** And the TGI (SK-MEL-5 melanoma)?
**A.** 0.656 nM

**Q.** And the GI50 (SK-OV-3 ovarian)?
**A.** 0.079 nM

**Q.** What about the GI50 (SN12C renal) of the same compound?
**A.** 0.425 nM

**Q.** What about the TGI (SN12C renal) of the same compound?
**A.** 4250 nM and > 14700 nM

**Q.** And the TGI (SNB-19 CNS)?
**A.** 7.44 nM

**Q.** What about the GI50 (SNB-75 CNS) of the same compound?
**A.** 0.425 nM

**Q.** And the GI50 (SW-620 colon)?
**A.** 0.425 nM

**Q.** And the TGI (T-47D breast)?
**A.** > 100000 nM

**Q.** What about the GI50 (TK-10 renal) of the same compound?
**A.** 310 nM

**Q.** And the TGI (TK-10 renal)?
**A.** 98300 nM

**Q.** What about the TGI (U251 CNS) of the same compound?
**A.** 1.43 nM

**Q.** And the GI50 (UACC-257 melanoma)?
**A.** 0.425 nM and < 58.9 nM

**Q.** And the GI50 (UACC-62 melanoma)?
**A.** 0.425 nM
